Experimental data from patent US5744494A, “Synergistic compositions containing benzimidazole anthelmintics and methylenedioxyphenyl compounds” (priority 1993, dated 1998).
One block for each compound: values may come before it.

Key:
[1] = in vivo; details: for AUC: goat, po, 7.5 mg/kg
Experimental: In order to minimise interindividual variations our experimental protocol was designed as a crossover (each animal was used as its own control). A five week wash-out period was allowed between crossovers. Six goats were used in this experiment.
First period: Fenbendazole (Panacur 2.5%) was administered orally at a dose rate of 7.5 mg/kg. Blood samples were taken prior to drug administration and 0.25, 0.5, 1, 2, 4, 8, 12, 24, 32, 48, 72 and 96 hours thereafter.
Second period: One hour before administration of fenbendazole (7.5 mg/kg) the animals received a dose of piperonyl butoxide (0.5 g/kg) given intramuscularly. Blood samples were taken as in the first period.
Plasma samples were analysed for fenbendazole by High Performance Liquid Chromatography.

[2] = test system: hepatocytes cultured from rats
Excerpt: An experiment using hepatocytes cultured from rats has been initiated to determine the metabolic interactions of piperonyl butoxide and fenbendazole (50 micromoles).

[3] = test system: benzimidazole resistant Ostertagia circumcincta and Haemonchus contortus; experiment: Faecal egg counts in infected lambs (McMaster egg counting technique); type: in vivo
Experimental: (§1) A study was carried out to determine the efficacy of the piperonyl butoxide: fenbendazole combination and to compare it with piperonyl-butoxide and fenbendazole alone against benzimidazole resistant abomasal parasites.
(§2) Twenty-four parasite naive Suffolk cross lambs were allocated into four groups of six. Each lamb received an oral dose of 6,000 benzimidazole resistant Ostertagia circumcincta and 2,400 benzimidazole resistant Haemonchus contortus.
(§3) Twenty-eight days after infection animals were treated as follows:
(§4) Group 2 Piperonyl butoxide (63 mg/kg) by stomach tube.
(§5) Group 3 Fenbendazole (5 mg/kg) by stomach tube.
(§6) Group 4 Piperonyl butoxide (63 mg/kg) and fenbendazole
(§7) (5 mg/kg) by stomach tube.
(§8) All lambs were faecal sampled and killed seven days after treatment (day 35). Nematode egg numbers were determined in faeces by the McMaster egg counting technique (Gordon and Whitlock (1939) J. Council for Scientific and Industrial Res., 12,50) and numbers of O. circumcincta were determined by the dilution method of Ritchie et al. (1966), Amer J. Vet. Res., 27, 659-667. Total abomasal counts of H. contortus were determined.

[4] = test system: benzimidazole resistant Ostertagia circumcincta; experiment: Numbers of O. circumcincta in sheep at necropsy (dilution method); type: in vivo
Experimental: as §1, §2, §3, §4, §5, §6, §7, §8

[5] = test system: benzimidazole resistant Haemonchus contortus; experiment: Total abomasal counts of H. contortus in sheep at necropsy; type: in vivo; details: for numbers of H.contortus at necropsy, effect in words: 7 days after treatment; for Mean ±SD numbers of H. contortus in sheep killed 7 days after treatment: piperonyl butoxide 63 mg/kg and/or fenbendazole 5 mg/kg by stomach tube, no treatment 345 ± 69
Experimental: as §1, §2, §3, §4, §5, §6, §7, §8

[6] = pretreatment with 2-diethylaminoethyl-2,2-diphenylvalerate hydrochloride and piperonyl butoxide; Food Chem. Toxicol. 1992, 30(12), 1021-30; cited from earlier work

Compound: COC(=O)Nc1nc2ccc([S+]([O-])c3ccccc3)cc2[nH]1 (stereo not shown) [Fenbendazole sulfoxide, fenbendazole sulfoxide]
- AUC ([1]; Area under plasma-concentration-time curve (Active alone), active alone, goats, fenbendazole 7.5 mg/kg oral): 7720 ng·h/mL
- concentrations of the sulfoxide and sulfone metabolites [2]: much reduced

- area under the plasma concentration-time curve (AUC), change in words [1]: significant increase
- residence time, change in words [1]: significantly prolonged
- AUC ([1]; Area under plasma-concentration-time curve (Active alone)): 4170 ng·h/mL
Compound: COC(=O)Nc1nc2ccc(Sc3ccccc3)cc2[nH]1 [Fenbendazole, fenbendazole]
- AUC ([1]; Area under plasma-concentration-time curve (Active plus piperonyl butoxide)): 16600 ng·h/mL
- Mean ±SD faecal egg counts in sheep seven days after treatment ([3]; piperonyl butoxide 63 mg/kg and/or fenbendazole 5 mg/kg by stomach tube, no treatment 491 ± 267): 100 ± 84 Eggs per gram of faeces
- reduction in faecal egg counts ([3]; seven days after treatment): 79.7%
- reduction of number of O.circumcincta in the abomasa, in words ([4]; at necropsy, alone): Neither piperonyl butoxide nor fenbendazole alone significantly reduced
- Mean ±SD numbers of O. circumcincta in sheep killed 7 days after treatment ([4]; piperonyl butoxide 63 mg/kg and/or fenbendazole 5 mg/kg by stomach tube, no treatment 2985 ± 654): 2875 ± 1308
- numbers of H.contortus at necropsy, effect in words [5]: significantly reduced
- Mean ±SD numbers of H. contortus in sheep killed 7 days after treatment [5]: 58 ± 29

Compound: CCCCOCCOCCOCc1cc2c(cc1CCC)OCO2 [Piperonyl butoxide, piperonyl butoxide]
- numbers of H.contortus at necropsy, effect in words [5]: no effect
- Mean ±SD numbers of H. contortus in sheep killed 7 days after treatment [5]: 320 ± 133
- effect on oxidative metabolism of fenbendazole by rat liver cells [2]: inhibiting the oxidative metabolism of fenbendazole

Compound: c1ccc2[nH]c(-c3cscn3)nc2c1 [thiabendazole]
- acute toxic effects on the kidneys of mice [6]: enhanced
